How the values were obtained:
[1] = molecular target: T1, human LXR alpha ligand binding domain (LXRα-LBD) (Homo sapiens, UniProt Q13133); experiment: Radioligand binding assay (SPA), LXR alpha; conditions: LXRα-LBD on SPA beads, read-out: LXRalpha Binding IC50
T1 construct: human LXR alpha (aa 164 to 447); unspecified tag ('tagged versions'); made in house; host or cells: E. coli BL21 (pLysS)
T1 sequence (Q13133 164-447): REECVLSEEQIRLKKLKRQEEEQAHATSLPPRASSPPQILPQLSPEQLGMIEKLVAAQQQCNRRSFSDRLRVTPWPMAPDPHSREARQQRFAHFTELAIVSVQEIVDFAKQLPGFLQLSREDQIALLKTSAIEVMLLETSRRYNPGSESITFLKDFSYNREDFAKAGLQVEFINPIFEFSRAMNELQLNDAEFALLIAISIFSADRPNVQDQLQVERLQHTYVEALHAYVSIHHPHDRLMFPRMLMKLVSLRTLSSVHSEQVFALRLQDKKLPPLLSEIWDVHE
Method: (§1) The following tests were carried out in order to determine the activity of the compounds of the present invention. Background information on the performed assays can be found in: Nichols J S et al. “Development of a scintillation proximity assay for peroxisome proliferator-activated receptor gamma ligand binding domain”, Anal Biochem. 1998, 257: 112-119.
(§2) Mammalian expression vectors were constructed to express full-length human LXR alpha and LXR beta. Bacterial expression vectors were constructed to produce tagged versions of the ligand binding domains (LBD) of human LXR alpha (aa 164 to 447) and human LXR beta (aa 155 to 460). To accomplish this, the portions of the sequences encoding the LBDs were amplified from the full-length clones by PCR and then subcloned into the plasmid vectors. Final clones were verified by DNA sequence analysis (Willy et al., Genes Dev. 1995, 9:1033-45; Song et al., Proc Natl Acad Sci USA.1994, 91:10809-13).
(§3) Induction, expression, and purification of LBD proteins were performed in E. coli strain BL21 (pLysS) cells by standard methods (Ref: Current Protocols in Molecular Biology, Wiley Press, edited by Ausubel et al).
(§4) Radioligand Binding Assay
(§5) LXR alpha and LXR beta receptor binding were assayed in buffer consisting of 50 mM HEPES, pH 7.4, 10 mM NaCl, 5 mM MgCl2. For each 96-well reaction, 500 ng of LXRα-LBD or 700 ng of LXR beta-LBD proteins were bound to 80 μg or 40 μg SPA beads respectively, in a final volume of 50 μl by shaking. The resulting slurry was incubated for 1 h at RT and centrifuged for 2 min at 1300×g. The supernatant containing unbound protein was removed, and the semi-dry pellet containing the receptor-coated beads was re-suspended in 50 μl of buffer. […] All binding assays were performed in 96-well plates and the amount of bound ligand was measured on a Packard TopCount using OptiPlates (Packard). Dose response curves were measured within a range of concentration from 10^−10 M to 10^−4 M.

[2] = molecular target: T2, human LXR beta ligand binding domain (LXR beta-LBD) (Homo sapiens, UniProt P55055); experiment: Radioligand binding assay (SPA), LXR beta; conditions: LXR beta-LBD on SPA beads, read-out: LXRbeta Binding IC50
T2 construct: human LXR beta (aa 155 to 460); unspecified tag ('tagged versions'); made in house; host or cells: E. coli BL21 (pLysS)
T2 sequence (P55055 155-460): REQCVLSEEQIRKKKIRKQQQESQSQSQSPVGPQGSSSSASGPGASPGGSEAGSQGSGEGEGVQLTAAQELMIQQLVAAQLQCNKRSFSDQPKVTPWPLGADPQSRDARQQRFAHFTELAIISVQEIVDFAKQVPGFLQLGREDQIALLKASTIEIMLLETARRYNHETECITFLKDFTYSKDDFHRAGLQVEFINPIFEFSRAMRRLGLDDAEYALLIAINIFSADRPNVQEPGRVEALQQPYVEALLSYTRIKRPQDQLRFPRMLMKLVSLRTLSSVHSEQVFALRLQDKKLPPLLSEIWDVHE
Method: as §1, §2, §3, §4, §5

Row | SMILES | IC50 [1] [nM] | IC50 [2] [nM]
1 | O=C(C1CN(S(=O)(=O)c2ccccc2)C(=O)N1C1CCCCC1)N1CCN(c2ncccc2C(F)(F)F)CC1 (racemic) [Example 39, (RS)-1-Benzenesulfonyl-3-cyclohexyl-4-[4-(3-trifluoromethyl-pyridin-2-yl)-piperazine-1-carbonyl]-imidazolidin-2-one] | 5500 | 480
2 | O=C(C1CN(S(=O)(=O)c2ccccc2)C(=O)N1c1ccccc1Cl)N1CCN(c2ncccc2Cl)CC1 (racemic) [Example 63, (RS)-1-Benzenesulfonyl-3-(2-chloro-phenyl)-4-[4-(3-chloro-pyridin-2-yl)-piperazine-1-carbonyl]-imidazolidin-2-one] | 2500 | 240
3 | Cc1ccc(C)c(N2CCN(C(=O)[C@@H]3CN(S(=O)(=O)c4ccccc4)C(=O)N3c3ccccc3Cl)CC2)c1 [Example 50, (S)-1-Benzenesulfonyl-3-(2-chloro-phenyl)-4-[4-(2,5-dimethyl-phenyl)-piperazine-1-carbonyl]-imidazolidin-2-one] | 260 | 100
